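Cultured in 96-well plates, cells were exposed to test compound for 48 hours across five concentrations. Definition used: TGI = concentration required for complete inhibition of growth.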
Experiments:
Experiment in all cases: growth of human tumour cells (NCI), 48 h
786-0 renal = tested on: 786-0 renal
A498 renal = tested on: A498 renal
A549 NSCLC = tested on: A549 NSCLC
ACHN renal = tested on: ACHN renal
BT-549 breast = tested on: BT-549 breast
CAKI-1 renal = tested on: CAKI-1 renal
CCRF-CEM leukemia = tested on: CCRF-CEM leukemia
COLO 205 colon = tested on: COLO 205 colon
DU-145 prostate = tested on: DU-145 prostate
EKVX NSCLC = tested on: EKVX NSCLC
HCC-2998 colon = tested on: HCC-2998 colon
HCT-116 colon = tested on: HCT-116 colon
HCT-15 colon = tested on: HCT-15 colon
HL-60(TB) leukemia = tested on: HL-60(TB) leukemia
HOP-62 NSCLC = tested on: HOP-62 NSCLC
HOP-92 NSCLC = tested on: HOP-92 NSCLC
HS 578T breast = tested on: HS 578T breast
HT29 colon = tested on: HT29 colon
IGROV1 ovarian = tested on: IGROV1 ovarian
K-562 leukemia = tested on: K-562 leukemia
KM12 colon = tested on: KM12 colon
LOX IMVI melanoma = tested on: LOX IMVI melanoma
M14 melanoma = tested on: M14 melanoma
MALME-3M melanoma = tested on: MALME-3M melanoma
MCF7 breast = tested on: MCF7 breast
MDA-MB-231 breast = tested on: MDA-MB-231 breast
MDA-MB-435 = tested on: MDA-MB-435
MDA-N = tested on: MDA-N
MOLT-4 leukemia = tested on: MOLT-4 leukemia
NCI-H226 lung = tested on: NCI-H226 lung
NCI-H23 lung = tested on: NCI-H23 lung
NCI-H460 lung = tested on: NCI-H460 lung
NCI-H522 lung = tested on: NCI-H522 lung
NCI/ADR-RES ovarian = tested on: NCI/ADR-RES ovarian
OVCAR-3 ovarian = tested on: OVCAR-3 ovarian
OVCAR-4 ovarian = tested on: OVCAR-4 ovarian
OVCAR-5 ovarian = tested on: OVCAR-5 ovarian
OVCAR-8 ovarian = tested on: OVCAR-8 ovarian
PC-3 prostate = tested on: PC-3 prostate
RPMI-8226 leukemia = tested on: RPMI-8226 leukemia
RXF 393 renal = tested on: RXF 393 renal
SF-268 CNS = tested on: SF-268 CNS
SF-295 CNS = tested on: SF-295 CNS
SF-539 CNS = tested on: SF-539 CNS
SK-MEL-2 melanoma = tested on: SK-MEL-2 melanoma
SK-MEL-28 melanoma = tested on: SK-MEL-28 melanoma
SK-MEL-5 melanoma = tested on: SK-MEL-5 melanoma
SK-OV-3 ovarian = tested on: SK-OV-3 ovarian
SN12C renal = tested on: SN12C renal
SNB-19 CNS = tested on: SNB-19 CNS
SNB-75 CNS = tested on: SNB-75 CNS
SR leukemia = tested on: SR leukemia
SW-620 colon = tested on: SW-620 colon
T-47D breast = tested on: T-47D breast
TK-10 renal = tested on: TK-10 renal
U251 CNS = tested on: U251 CNS
UACC-257 melanoma = tested on: UACC-257 melanoma
UACC-62 melanoma = tested on: UACC-62 melanoma
UO-31 renal = tested on: UO-31 renal

## COc1cccc(/C=C\c2ccc(O)cc2)c1
786-0 renal
  TGI: 49.2 µM
A498 renal
  TGI: 69.8 µM
A549 NSCLC
  TGI: > 80.9 µM
ACHN renal
  TGI: > 89.2 µM
BT-549 breast
  TGI: 58.4 µM
CAKI-1 renal
  TGI: > 84.1 µM
CCRF-CEM leukemia
  TGI: 1.22 µM
COLO 205 colon
  TGI: > 100 µM
DU-145 prostate
  TGI: 56.6 µM
EKVX NSCLC
  TGI: > 100 µM
HCC-2998 colon
  TGI: > 62.8 µM
HCT-116 colon
  TGI: 74 µM
HCT-15 colon
  TGI: > 76.1 µM
HL-60(TB) leukemia
  TGI: 2.92 µM
HOP-62 NSCLC
  TGI: > 100 µM
HOP-92 NSCLC
  TGI: 64.8 µM
HS 578T breast
  TGI: 75 µM
HT29 colon
  TGI: 53.7 µM
IGROV1 ovarian
  TGI: > 100 µM
K-562 leukemia
  TGI: > 50.4 µM
KM12 colon
  TGI: 33.3 µM
LOX IMVI melanoma
  TGI: 41.2 µM
M14 melanoma
  TGI: 63.5 µM
MALME-3M melanoma
  TGI: 65.9 µM
MCF7 breast
  TGI: > 100 µM
MDA-MB-231 breast
  TGI: > 100 µM
MDA-MB-435
  TGI: > 91.2 µM
MDA-N
  TGI: > 100 µM
MOLT-4 leukemia
  TGI: 38.7 µM
NCI-H226 lung
  TGI: > 88.8 µM
NCI-H23 lung
  TGI: 39.6 µM
NCI-H460 lung
  TGI: > 67.3 µM
NCI-H522 lung
  TGI: 56.8 µM
NCI/ADR-RES ovarian
  TGI: 31.7 µM
OVCAR-3 ovarian
  TGI: > 82.7 µM
OVCAR-4 ovarian
  TGI: > 100 µM
OVCAR-5 ovarian
  TGI: > 100 µM
OVCAR-8 ovarian
  TGI: 56.2 µM
PC-3 prostate
  TGI: 99.5 µM
RPMI-8226 leukemia
  TGI: > 100 µM
RXF 393 renal
  TGI: > 78.8 µM
SF-268 CNS
  TGI: > 96.7 µM
SF-295 CNS
  TGI: > 100 µM
SF-539 CNS
  TGI: 53.1 µM
SK-MEL-2 melanoma
  TGI: 68.8 µM
SK-MEL-28 melanoma
  TGI: > 100 µM
SK-MEL-5 melanoma
  TGI: > 51.7 µM
SK-OV-3 ovarian
  TGI: > 100 µM
SN12C renal
  TGI: > 68.3 µM
SNB-19 CNS
  TGI: > 100 µM
SNB-75 CNS
  TGI: 70.2 µM
SR leukemia
  TGI: 20.1 µM
SW-620 colon
  TGI: > 90.7 µM
T-47D breast
  TGI: > 84.2 µM
TK-10 renal
  TGI: > 100 µM
U251 CNS
  TGI: > 57.5 µM
UACC-257 melanoma
  TGI: > 100 µM
UACC-62 melanoma
  TGI: > 100 µM
UO-31 renal
  TGI: 33.7 µM

## Cc1ccc(N=C2C(c3ccccc3)=C(SC3=C(c4ccccc4)C(=Nc4ccc(C)cc4)c4ccccc43)c3ccccc32)cc1
786-0 renal
  TGI: 22.4 µM
A498 renal
  TGI: 33.5 µM
A549 NSCLC
  TGI: > 100 µM
ACHN renal
  TGI: 18.3 µM
BT-549 breast
  TGI: > 62.8 µM
CAKI-1 renal
  TGI: 65.6 µM
CCRF-CEM leukemia
  TGI: > 100 µM
COLO 205 colon
  TGI: > 100 µM
DU-145 prostate
  TGI: > 100 µM
EKVX NSCLC
  TGI: 43.9 µM
HCC-2998 colon
  TGI: > 54.1 µM
HCT-116 colon
  TGI: > 100 µM
HCT-15 colon
  TGI: > 100 µM
HL-60(TB) leukemia
  TGI: 17.8 µM
HOP-62 NSCLC
  TGI: 22.9 µM
HOP-92 NSCLC
  TGI: 33.2 µM
HS 578T breast
  TGI: 22.9 µM
HT29 colon
  TGI: > 48.9 µM
IGROV1 ovarian
  TGI: 45.5 µM
K-562 leukemia
  TGI: > 100 µM
KM12 colon
  TGI: > 100 µM
LOX IMVI melanoma
  TGI: > 100 µM
M14 melanoma
  TGI: > 100 µM
MCF7 breast
  TGI: > 100 µM
MDA-MB-231 breast
  TGI: 38.7 µM
MDA-MB-435
  TGI: > 100 µM
MDA-N
  TGI: > 100 µM
MOLT-4 leukemia
  TGI: > 100 µM
NCI-H226 lung
  TGI: > 63.1 µM
NCI-H23 lung
  TGI: 41.6 µM
NCI-H460 lung
  TGI: 36.3 µM
NCI-H522 lung
  TGI: > 100 µM
NCI/ADR-RES ovarian
  TGI: > 100 µM
OVCAR-3 ovarian
  TGI: > 100 µM
OVCAR-4 ovarian
  TGI: 17.2 µM
OVCAR-5 ovarian
  TGI: > 100 µM
OVCAR-8 ovarian
  TGI: 24.7 µM
PC-3 prostate
  TGI: > 100 µM
RPMI-8226 leukemia
  TGI: > 100 µM
RXF 393 renal
  TGI: 27.9 µM
SF-268 CNS
  TGI: 18.8 µM
SF-295 CNS
  TGI: 27.4 µM
SF-539 CNS
  TGI: 24.6 µM
SK-MEL-2 melanoma
  TGI: > 78.7 µM
SK-MEL-28 melanoma
  TGI: > 100 µM
SK-MEL-5 melanoma
  TGI: > 100 µM
SK-OV-3 ovarian
  TGI: 35.4 µM
SN12C renal
  TGI: 77.1 µM
SNB-19 CNS
  TGI: 17.1 µM
SNB-75 CNS
  TGI: 22.2 µM
SR leukemia
  TGI: > 100 µM
SW-620 colon
  TGI: > 100 µM
T-47D breast
  TGI: > 100 µM
TK-10 renal
  TGI: > 100 µM
U251 CNS
  TGI: > 53.5 µM
UACC-257 melanoma
  TGI: > 100 µM
UACC-62 melanoma
  TGI: > 51.7 µM
UO-31 renal
  TGI: 33.3 µM

## CSc1c(C#N)c(S)[nH]c(=O)c1C#N
786-0 renal
  TGI: > 100 µM
A498 renal
  TGI: 98 µM
A549 NSCLC
  TGI: > 100 µM
BT-549 breast
  TGI: > 100 µM
CAKI-1 renal
  TGI: > 100 µM
CCRF-CEM leukemia
  TGI: > 100 µM
COLO 205 colon
  TGI: > 100 µM
DU-145 prostate
  TGI: > 100 µM
EKVX NSCLC
  TGI: > 100 µM
HCC-2998 colon
  TGI: > 100 µM
HCT-116 colon
  TGI: > 100 µM
HCT-15 colon
  TGI: > 100 µM
HL-60(TB) leukemia
  TGI: > 100 µM
HS 578T breast
  TGI: > 100 µM
HT29 colon
  TGI: > 100 µM
IGROV1 ovarian
  TGI: > 100 µM
K-562 leukemia
  TGI: > 100 µM
KM12 colon
  TGI: > 100 µM
LOX IMVI melanoma
  TGI: > 100 µM
M14 melanoma
  TGI: > 100 µM
MALME-3M melanoma
  TGI: 51.5 µM
MCF7 breast
  TGI: > 100 µM
MDA-MB-231 breast
  TGI: > 100 µM
MDA-MB-435
  TGI: > 100 µM
MDA-N
  TGI: > 100 µM
MOLT-4 leukemia
  TGI: > 100 µM
NCI-H226 lung
  TGI: > 100 µM
NCI-H23 lung
  TGI: > 100 µM
NCI-H460 lung
  TGI: > 100 µM
NCI-H522 lung
  TGI: > 100 µM
NCI/ADR-RES ovarian
  TGI: > 100 µM
OVCAR-3 ovarian
  TGI: > 100 µM
OVCAR-4 ovarian
  TGI: > 100 µM
OVCAR-5 ovarian
  TGI: > 100 µM
OVCAR-8 ovarian
  TGI: > 100 µM
PC-3 prostate
  TGI: > 100 µM
RPMI-8226 leukemia
  TGI: > 100 µM
RXF 393 renal
  TGI: > 100 µM
SF-268 CNS
  TGI: > 100 µM
SF-539 CNS
  TGI: > 100 µM
SK-MEL-2 melanoma
  TGI: > 100 µM
SK-MEL-28 melanoma
  TGI: > 100 µM
SK-MEL-5 melanoma
  TGI: 98.9 µM
SK-OV-3 ovarian
  TGI: > 100 µM
SN12C renal
  TGI: > 100 µM
SNB-19 CNS
  TGI: > 100 µM
SNB-75 CNS
  TGI: > 100 µM
SR leukemia
  TGI: > 100 µM
SW-620 colon
  TGI: > 100 µM
T-47D breast
  TGI: > 100 µM
TK-10 renal
  TGI: > 100 µM
U251 CNS
  TGI: > 100 µM
UACC-257 melanoma
  TGI: > 100 µM
UACC-62 melanoma
  TGI: > 100 µM
UO-31 renal
  TGI: 87.5 µM
